Experimental data taken from paper PMC13586173, “Synthetic cannabinoid receptor agonists inhibit the cardiac voltage-gated potassium channel hERG” (Acta Pharmacologica Sinica, 2026).
Read-outs that look alike come from different tables or passages of the source.

Experiments:
[1] = target: hERG (KV11.1) (Homo sapiens, UniProt Q12809); experiment: Automated planar patch-clamp (APC, QPatch II 48), voltage-ladder protocol, CHO cells stably expressing human hERG; details: for hERG channel Efficacy (max reduction in Gmax) Gmin / hERG channel Efficacy (max reduction in Gmax) Gmin, marked *: 1 = no reduction of Gmax; for hERG channel Efficacy (max reduction in Gmax) Gmin: 0 = complete reduction; for hERG channel Efficacy (max reduction in Gmax) Gmin, marked *: * Greatest efficacy achieved with a concentration between 10 and 30 µM (no fit); for effect on Gmax of hERG (in words): APC concentration-response, 1.11 to 30 µM
Text: To assess the effect of a large set of SCRAs on hERG (see SI Table I and SI Fig. S1 for a list of the 36 included SCRAs and corresponding structures), we used the automated planar patch-clamp (APC) technique on mammalian Chinese hamster ovary (CHO) cells stably expressing human hERG. […] We employed a voltage-ladder protocol to obtain information on SCRA effects on the channel’s voltage dependence of activation (V50) and maximal conductance (Gmax) (both determined from Boltzmann fits of the instantaneous tail currents; see Methods for details).
Stably expressing cell lines “CHO-hERG DUO” (here referred to as hERG; gene: KCNH2) and “CHO-KVLQT1/mink” (here referred to as KV7.1/KCNE1; gene: KCNQ1/KCNE1), (B’SYS GmBH, Witterswil, Switzerland) were used to study whole-cell K^+ currents on a QPatch II 48 APC system (Sophion Bioscience A/S, Ballerup, Denmark). Cell culture and passaging were performed in accordance with standard operating procedures. Cells were harvested in serum-free medium with Detachin^TM (Genlantis, CA, USA) immediately prior to experiments. For MPC on transient cell lines, CHO-K1 CCL-61 cells (ATCC, Manassas, VA, USA) were cultured in Ham’s F-12 medium supplemented with 10% fetal bovine serum (FBS) and 100 U/mL penicillin–100 µg/mL streptomycin (Gibco, Thermo Fisher Scientific, Waltham, MA, USA). Transfection was carried out using JetOPTIMUS® reagent (Polyplus, Strasbourg, France) according to the manufacturer’s protocol. Briefly, 80,000 cells were seeded per well in a 12-well plate and transfected with 300 ng of pcDNA3-GFP plasmid, 700 ng of pcDNA3-hERG plasmid with either the wild-type or mutant channels (S624A, S649A, or Y652A), and […] of JetOPTIMUS. After 8 h, cells were detached and reseeded at a density of 30,000 cells per well onto several poly-D-lysine-coated glass coverslips placed in a 12-well plate. For the CB1 receptor activity assay, the AequoScreen® recombinant Chinese hamster ovary (CHO) K1 cell line, stably expressing the human CB1 receptor (ES-110-A), was used (Revvity, Sollentuna, Sweden).
Automated patch-clamp recordings were performed at 22 °C. Freshly harvested cell suspensions (2–3 million cells/mL) were prepared for experiments by the QPatch II 48 automated cell preparation unit. Cells were centrifuged for 150 s at 150 × g and washed twice with the extracellular recording solution. Cells were handled by the integrated pipetting robot and added to the 48 experiment sites on the planar patch-clamp consumable QPlate. Each experiment site contained an individual pair of recording electrodes and a silicon/glass biochip embedded in the flow channels. Single-cell patch recordings (n = 1 is defined as one single-cell patch) and population patch recordings (up to 10 cells per well, n = 1 is defined as one population patch) were performed for hERG and for KV7.1/KCNE1, respectively. Cells were applied, positioned and sealed to the patch holes by a mild suction protocol; whole-cell access was then achieved by a stronger suction pulse.
The intracellular solution contained (in mM): 100 KCl, 4.3 CaCl2, 1.4 MgCl2, 25/10 KOH/EGTA, 24 KF, 10 HEPES, and 4 Mg-ATP (hERG) or 4 Na-ATP (KV7.1/KCNE1). […] The compounds were pre-diluted in DMSO, and the final concentration of DMSO (0.3%) was equal in all recording solutions to control for vehicle effects. The compounds made no contact with plastics following dilution in extracellular solution.
An overview of experimental conditions is provided in SI Table VII, Square voltage pulses in a voltage ladder protocol were used to study current/voltage (I(V)) relationships. Each voltage protocol was first run three times in the presence of vehicle (extracellular solution supplemented with 0.3% DMSO), the 3rd serving as the baseline. Voltage protocols were repeated in the presence of 4 cumulatively rising concentrations of test compound, followed by application of vehicle for recovery.

[2] = target: T1, human CB1 receptor (Homo sapiens, UniProt P21554); experiment: AequoScreen intracellular calcium release assay, CHO-K1 cells stably expressing CB1; format: cell-based; details: for CB1 receptor Efficacy Emax: normalized to maximum of JWH-018
T1 construct: host or cells: CHO-K1 stably expressing CB1, apoaequorin and Gα16

[3] = target: KV7.1/KCNE1 (Homo sapiens, UniProt P51787); experiment: Automated patch-clamp (APC, population patch), CHO cells stably expressing human KV7.1/KCNE1; format: cell-based; details: for KV7.1/KCNE1 channel Efficacy (max reduction in Gmax) Gmin: best fit, 1 = no reduction of Gmax, 0 = complete reduction; for KV7.1/KCNE1 channel Efficacy (max reduction in Gmax) Gmin, marked *: * Greatest efficacy achieved with a concentration between 10 and 30 µM (no fit)
Procedure: Both hERG and KV7.1/KCNE1 contribute to cardiomyocyte repolarization (Fig. 1g). Inhibition of KV7.1/KCNE1 alone can be proarrhythmic. Moreover, under conditions with impaired hERG function, upregulation of KV7.1/KCNE1 has been proposed to partially compensate for the loss of hERG [38, 39]. […] To assess if SCRAs also affect KV7.1/KCNE1, we used mammalian CHO cells stably expressing human KV7.1/KCNE1. […] At 10 µM, 7 of the SCRAs caused a significant positive shift in V50 (Fig. 5e), with the largest shift induced by MDMB-[…] (ΔV50 = +10.3 ± 1.6 mV).
Automated patch-clamp recordings were performed at 22 °C.
For the KV7.1/KCNE1 voltage ladder protocol (SI Table VII) the solutions were present for 60 s before recording started. KV7.1/KCNE1 cells were kept at a holding voltage of −90 mV, with brief hyperpolarizing steps to −100 mV for 540 ms (to calculate ohmic leakage). […] The time between compound application and the first voltage protocol was 60 s. Time between sweeps was 15 s. The voltage ladder protocol was executed every 220 s.
For Gmax (rel.), N was set to –1. For ΔV50, N was set to 1.

[4] = test system: hERG; details: cited from earlier work
[5] = rats; cited from earlier work
[6] = test system: hERG; details: cited from earlier work; remark: listed apart in the source
[7] = experimentally observed effect of 10 µM, used in ORd simulation
[8] = CB1 receptor Potency EC50, normalized to median EC50 of JWH-018, n ≥ 3 (JWH-030 n = 2)
[9] = normalized to median EC50 of JWH-018, n ≥ 3 (JWH-030 n = 2), read-out: CB1 receptor Potency EC50

T1 sequence (P21554 whole entry): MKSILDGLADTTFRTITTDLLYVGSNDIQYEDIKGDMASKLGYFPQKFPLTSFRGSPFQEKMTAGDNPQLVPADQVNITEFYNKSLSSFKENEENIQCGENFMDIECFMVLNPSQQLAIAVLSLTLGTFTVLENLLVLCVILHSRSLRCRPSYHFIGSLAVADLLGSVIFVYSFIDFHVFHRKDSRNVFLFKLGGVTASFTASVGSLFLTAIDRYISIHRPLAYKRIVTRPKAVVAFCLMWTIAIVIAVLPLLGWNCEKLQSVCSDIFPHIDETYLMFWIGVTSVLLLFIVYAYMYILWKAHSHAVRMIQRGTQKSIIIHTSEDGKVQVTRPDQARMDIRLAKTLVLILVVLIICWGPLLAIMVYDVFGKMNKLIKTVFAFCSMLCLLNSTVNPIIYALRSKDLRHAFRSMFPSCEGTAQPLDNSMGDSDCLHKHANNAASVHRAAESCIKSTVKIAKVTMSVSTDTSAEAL
Sequence of KV7.1/KCNE1 (P51787 whole entry): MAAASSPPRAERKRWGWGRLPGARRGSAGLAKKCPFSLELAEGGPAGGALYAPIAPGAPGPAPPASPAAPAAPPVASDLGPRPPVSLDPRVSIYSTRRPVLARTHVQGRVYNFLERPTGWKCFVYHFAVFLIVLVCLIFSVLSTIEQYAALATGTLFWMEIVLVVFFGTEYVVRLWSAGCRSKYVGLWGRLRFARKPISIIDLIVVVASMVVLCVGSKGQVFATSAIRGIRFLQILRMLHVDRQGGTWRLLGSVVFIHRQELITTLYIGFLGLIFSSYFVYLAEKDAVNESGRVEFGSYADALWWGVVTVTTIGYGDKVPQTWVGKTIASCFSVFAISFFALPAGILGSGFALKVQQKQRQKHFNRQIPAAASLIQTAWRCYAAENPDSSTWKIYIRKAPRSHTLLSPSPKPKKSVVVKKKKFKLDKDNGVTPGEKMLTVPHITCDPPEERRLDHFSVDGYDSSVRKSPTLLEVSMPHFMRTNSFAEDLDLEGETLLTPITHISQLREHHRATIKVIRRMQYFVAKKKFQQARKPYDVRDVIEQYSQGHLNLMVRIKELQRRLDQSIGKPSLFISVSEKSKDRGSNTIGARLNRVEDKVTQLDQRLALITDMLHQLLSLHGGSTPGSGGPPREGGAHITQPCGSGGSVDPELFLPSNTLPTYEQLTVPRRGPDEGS
Sequence of hERG (KV11.1) (Q12809 whole entry): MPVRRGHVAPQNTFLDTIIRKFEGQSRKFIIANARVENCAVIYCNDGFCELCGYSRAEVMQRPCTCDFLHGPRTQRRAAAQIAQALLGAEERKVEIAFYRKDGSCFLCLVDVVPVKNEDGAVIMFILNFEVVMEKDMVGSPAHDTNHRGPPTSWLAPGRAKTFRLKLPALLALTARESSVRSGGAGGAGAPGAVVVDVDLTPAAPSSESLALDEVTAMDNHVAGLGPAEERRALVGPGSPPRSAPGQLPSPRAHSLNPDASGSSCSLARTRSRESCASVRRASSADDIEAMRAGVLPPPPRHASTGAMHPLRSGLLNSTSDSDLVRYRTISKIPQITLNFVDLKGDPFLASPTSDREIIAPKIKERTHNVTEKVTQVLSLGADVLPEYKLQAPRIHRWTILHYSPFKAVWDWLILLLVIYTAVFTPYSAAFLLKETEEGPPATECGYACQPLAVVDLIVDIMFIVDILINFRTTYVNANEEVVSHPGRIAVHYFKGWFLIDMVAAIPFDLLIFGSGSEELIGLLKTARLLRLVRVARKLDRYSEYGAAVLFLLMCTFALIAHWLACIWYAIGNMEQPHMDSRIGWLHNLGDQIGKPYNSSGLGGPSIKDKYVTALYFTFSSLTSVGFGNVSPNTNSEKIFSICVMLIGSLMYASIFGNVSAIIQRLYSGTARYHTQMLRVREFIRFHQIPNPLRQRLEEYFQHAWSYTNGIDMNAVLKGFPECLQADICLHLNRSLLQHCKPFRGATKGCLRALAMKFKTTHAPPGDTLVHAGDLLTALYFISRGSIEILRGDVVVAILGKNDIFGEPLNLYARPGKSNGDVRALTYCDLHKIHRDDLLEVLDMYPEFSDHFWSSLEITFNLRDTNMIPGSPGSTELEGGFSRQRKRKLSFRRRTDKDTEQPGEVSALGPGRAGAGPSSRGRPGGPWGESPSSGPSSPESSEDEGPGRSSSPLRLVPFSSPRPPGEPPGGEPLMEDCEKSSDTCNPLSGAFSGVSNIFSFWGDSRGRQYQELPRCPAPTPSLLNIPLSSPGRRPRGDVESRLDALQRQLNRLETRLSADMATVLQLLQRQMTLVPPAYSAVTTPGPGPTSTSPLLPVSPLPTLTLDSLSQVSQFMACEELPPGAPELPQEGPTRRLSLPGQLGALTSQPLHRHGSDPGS

| Structure (SMILES) | EC50 [2, 8] [nM] | CB1 receptor Efficacy Emax ([2]; n ≥ 3 (JWH-030 n = 2)) [% JWH-018] | KV7.1/KCNE1 channel Efficacy (max reduction in Gmax) Gmin [3] | hERG channel Efficacy (max reduction in Gmax) Gmin, marked * [1] | effect on Gmax of hERG (in words) [1] | KV7.1/KCNE1 channel Efficacy (max reduction in Gmax) Gmin, marked * [3] | further results |
| --- | --- | --- | --- | --- | --- | --- | --- |
| CCCCCn1ccc(C(=O)c2cccc3ccccc23)c1 [JWH-030] | 291 | 76.5 | 0 | – | – | – | IC50 [1]: 23100 nM; hERG channel Efficacy (max reduction in Gmax) Gmin ([1]; best fit, APC, 22 °C): 0.00; remaining IKr (hERG Gmax) [1, 7]: 74%; IC50 [3]: 12200 nM; effect on KV7.1/KCNE1 (in words) ([3]; APC): largest reduction in Gmax; remaining IKs (KV7.1/KCNE1 Gmax) [3, 7]: 49%; hERG inhibition (in words) [4]: inhibits the voltage-gated potassium channel hERG; IC50 ([4]; read-out: in vitro hERG IC50, test pulse 1 s): 88400 nM; QT interval (in words) [5]: prolongs the QT interval in rats |
| CC(C)(C)[C@H](NC(=O)Cc1cn(Cc2ccc(F)cc2)c2ccccc12)C(N)=O [ADB-FUBIATA] | – | – | – | – | – | – | hERG inhibition (in words) [6]: inhibit hERG |
| CCCCCn1cc(C(=O)c2ccc(CC)c3ccccc23)c2ccccc21 [JWH-210] | – | 110 | 0 | 0.89 | – | – | EC50 [2, 9]: 10.1 nM |
| CCCCCN1C(=O)/C(=N\NC(=O)c2ccccc2)c2ccccc21 [BZO-POXIZID] | 349 | 108 | – | 0.79 | non-inhibitor | 0.83 | – |
| Cc1ccc(S(=O)(=O)n2nc(C(=O)NC(C)(C)c3ccccc3)c3ccccc32)cc1 [Cumyl-TsINACA] | – | 106 | – | 0.94 | non-inhibitor | 1.07 | EC50 ([2]; read-out: CB1 receptor Potency EC50): 166 nM |
| O=C(NC12CC3CC(CC(C3)C1)C2)c1nn(CCCCCF)c2ccccc12 [5F-APINACA] | 16.6 | 102 | 0 | – | inhibitory effects on Gmax | – | IC50 [1]: > 100000 nM; hERG channel Efficacy (max reduction in Gmax) Gmin, marked ? ([1]; ? Unreliable values (fit failed QC, extrapolated)): 0.00; IC50 [3]: 35100 nM; Gmax effect on hERG versus KV7.1/KCNE1 (in words) ([3]; 10 µM, both channels by APC): only on KV7.1/KCNE1; hERG inhibition (in words) [6]: inhibit hERG; IC50 ([6]; read-out: hERG IC50, HEK293 cells, 37 °C): 2200 nM |
| CCCCCn1cc(C(=O)c2ccc(C)c3ccccc23)c2ccccc21 [JWH-122] | – | 105 | – | – | – | 0.87 | hERG channel Efficacy (max reduction in Gmax) Gmin ([1]; best fit, APC, 22 °C): 0.73; IC50 ([1]; read-out: hERG channel Potency IC50 (Gmax reduction), APC, 22 °C, best fit): 9400 nM; EC50 [2, 9]: 8.29 nM |
